Experimental data as given in US9770451B2, “Composition including ATM inhibitor for reducing cellular senescence and use of the composition” (Samsung Electronics Co., Ltd., priority 2014, dated 2017).

Tests used:
[1] = tested on: progeria senescent fibroblasts (passage 17); test: ROS measurement (MitoSOX Red); type: cell-based, human; details: CP-466722 0.1 μM
Method: ROS was measured according to the protocol of the manufacturer using a 0.2 μM MitoSOX™ Red reagent (Invitrogen, M36008). In detail, 2 μL of the reagent that was stored in a 1,000-fold concentration was added to a 2 ml medium sufficiently enough to cover the cultured cells that were attached to a coverslip. While being protected from light, the cells were further incubated at a temperature of 37° C. for 30 minutes. The cultured cells were irradiated with a wavelength of 520 nm by using a FACSCaliber (Beckton Dickinson), and then, measured with radiation emitted from a wavelength of 580 nm. The results were analyzed using Cell Quest 3.2 software (Beckton Dickinson). FIG. 12 is a graph showing results of measuring ROS (A) and mitochondrial membrane potential (B) of the progeria senescent fibroblasts (passage 17) that were cultured in the presence of an ATM-kinase inhibitor KU-60019 (0.5 μM).
ROS was measured according to the protocol of the manufacturer using a 0.2 μM MitoSOX™ Red reagent (Invitrogen, M36008). […] The cultured cells were irradiated with a wavelength of 520 nm by using a FACSCaliber (Beckton Dickinson), and then, measured with radiation emitted from a wavelength of 580 nm. The results were analyzed using Cell Quest 3.2 software (Beckton Dickinson).

[2] = tested on: senescent myoblasts (passage 11); test: Morphological change by microscopy; type: cell-based, human; details: CP-466722 0.1 μM, 4 weeks
Method: A human myoblast cell line (Human Skeletal Muscle Myoblasts, Lonza CC-2580 LOT:0000387550) was inoculated into a plate (Greiner Bio One, 658950), which was coated with Collagen Type I, by using an SkBM™-2 Basal Medium (Lonza CC-3246) containing SkGM™-2 SingleQuots™ Kit (Lonza CC-3244), and then, cultured in a 5% CO2 incubator at a temperature of 37° C. When the cells were grown to about 85% confluency in the plate, the cells were subjected to subculture. The early subculture was carried out at a split ratio of 1:4, and the late subculture was carried out at a split ratio of 1:2. When the cell doubling time was 14 days, the cells were considered to be senescent […] (passages 10 to 12).
The senescent cells were inoculated into each well of a Collagen Type I-coated 6-well plate (Greiner Bio One, 657950) at a concentration of 2,000 cells/well, and then, the senescent myoblasts ([…]) in a CO2 incubator at a temperature of 37° C. for 4 weeks. The medium was replaced by a fresh medium containing KU-60019 (0.5 μM), once every 4 days. In addition, as a negative control group, the cells were cultured under the same conditions as described above, except that a medium used herein contained DMSO (0.05 (v/v) %).
In FIG. 16, the myoblasts were cultured in the presence of the ATM-kinase inhibitor KU-60019 (0.5 μM), and then, the cell shapes were photographed using a microscope. […]

SMILES: COc1cc2ncnc(-n3nc(-c4ccccn4)nc3N)c2cc1OC [CP-466722, 2-(6,7-dimethoxyquinazolin-4-yl)-5-(pyridin-2-yl)-2H-1,2,4-triazol-3-amine]
- amount of ROS vs control [1]: significantly decreased
- cell number and morphology vs DMSO control [2]: exist in a great number in the presence of CP-466722 and show a spindle form
